Source: publication PMC10224444, “Novel Perspectives on the Design and Development of a Long-Acting Subcutaneous Raltegravir Injection for Treatment of HIV—In Vitro and In Vivo Evaluation” (Pharmaceutics, 2023)
“And” between values parts separate entries of the source, which are not always exact repeats. Identical values can stand only once.

What was measured:
[1] = design: method as in PMID 33979164; conditions: pH 7.0, within 1 h; cited from earlier work
[2] = design: method as in PMID 33979164; conditions: cited from earlier work
[3] = design: method as in PMID 33979164; conditions: cited from earlier work; remark: listed apart in the source
[4] = In vitro release test in 50% PBS (pH 7.4, 34 °C), HPLC; type: physicochemical; conditions: for half-life: 50% PBS pH 7.4, 25 µM CTG probes, 100 µM prodrug 25, calculated as 0.69/kobs, read-out: t½ (half-life of payload release) (converted)
Experimental: (§1) Probes 14–15 and 20–21 stock solutions were prepared at 1000 µM (1 mM) in a 1:1 mixture of MeCN/water, followed by serial dilution with deionised water to give a 50 µM working concentration. Each experiment was run in triplicate after dilution of 0.5 mL of the stock solution with 0.5 mL of PBS (pH 7.4) or Tris buffer (pH 7.4), giving a final assay concentration of 25 µM for the probes. The samples were incubated at 34 °C to mimic the conditions found in SC tissue. Every day, a 2 µL aliquot of each sample was subjected to HPLC analysis using an Agilent 1260 Infinity instrument, with conditions as follows. Column: Agilent ZORBAX Eclipse Plus C18 Rapid Resolution, 3.5 μm (4.6 × 100 mm), pore size (95 Å); column temperature (35 °C). The mobile phases were solvent A: 0.1% TFA in ultrapure H2O and solvent B: 0.1% TFA in MeCN. The injection volume was 2 μL and the flow rate was kept at 1.0 mL/min. The analysis was performed using a gradient elution of 5–100% of solvent B in solvent A over 9 min, then maintained for a further 1 min at two wavelengths: 254 nm and 214 nm. The retention times of CTG and probes 14–15 and 20–21 were 4.13, 4.27, 4.93, 5.55, and 5.71 min, respectively. A calibration curve for the free CTG fluorophore was constructed over the concentration range of 10–100 µM at pH 7.4. The data were fit by linear regression to the equation y = 14.615x − 0.067, where y is the peak area of the analyte and x is the analyte concentration (µM). The correlation coefficient (R2) was computed as 0.999, confirming the linearity of used method under the specified measured concentrations.
Likewise, a test solution of prodrug 25 was incubated in 50% PBS at 100 µM final concentration, and analysed using the same HPLC method but with detection at 254 nm only. A higher concentration of 25 was used due to its relatively weaker absorption at 254 nm, compared with CTG. The retention times of RAL and prodrug 25 were 4.47 and 5.55 min, respectively. A calibration curve of RAL was constructed over the range 50–1000 µM. The data were fit by linear regression as before to give the equation y = 5.1961x − 20.064, with a similar goodness of fit (R^2 ≥ 0.999).
(§2) In vitro Release assays for probes 14–15 and 20–21 were conducted using pH and temperature conditions similar to those of SC tissue (pH 7.4 and 34 °C). Test compounds were dissolved in either MeCN/PBS (1:1, pH 7.4) or MeCN/Tris buffer (1:1, pH 7.4) at 25 µM, then incubated at 34 °C. Aliquots were taken daily and analysed by HPLC and LC-MS until complete fluorophore release was achieved. HPLC was preferred over fluorometric-based assay to study the stability of the synthesised probes because of the bleaching effect that may occur to the fluorophore over the long analysing periods. Photobleaching is the inability of the fluorophore to fluoresce due to the fluorophore instability upon repeated exposure to light over long periods. It can be a particular problem for fluorescence-based assays, thereby rationalising the choice of HPLC in the current work.
Similarly to the assays above, prodrug 25 (100 µM) was incubated in 50% PBS at 34 °C, and aliquots analysed daily by HPLC and LC-MS until full RAL release was achieved.

[5] = In vitro release test in 50% Tris buffer (pH 7.4, 34 °C), HPLC; type: physicochemical; conditions: 25 µM probe
Experimental: as §1, §2

[6] = Pharmacokinetic study after single SC injection in BALB/c mice; type: in vivo; conditions: mouse, plasma level of the dosed compound, single SC 30 mg/kg, male BALB/c mice, n = 3
Experimental: The pharmacokinetic profile of prodrug 25 was evaluated in mice, in a study undertaken at WuXi AppTec. Prodrug 25 was dissolved in a sterile vehicle of DMSO/Solutol HS15/water (10:10:80) to give a clear solution with a final concentration of 6 mg/mL. The same procedure was used to prepare a 6 mg/mL solution of RAL as a control. Six male BALB/c mice were used, each weighing 18–25 g and aged between 7–9 weeks (three per group). A single 30 mg/kg dose of prodrug 25 was administered to each animal in the treatment group (subcutaneously, in the thoracic region). Similarly, RAL (30 mg/kg) was administered to each animal in the control group. Blood samples were taken at the time points indicated below, up to the experiment endpoint (96 h).
For each animal, blood samples (30 μL each) were collected from the submandibular or saphenous vein over a period of 96 h, at the following time points: zero/pre-dose; then 0.25, 0.5, 1, 2, 3, 4, 5, 6, 24, 48, and 96 h. All samples were transferred into pre-chilled commercial K2EDTA tubes and placed on wet ice until processing for plasma, which was obtained by centrifugation at 4 °C and 3200× g for 10 min, within 30 min of sampling. The plasma samples were transferred to polypropylene tubes, snap-frozen on dry ice, and kept at −70 ± 10 °C until LC-MS/MS analysis.
An LC-MS/MS method was developed to measure the concentrations of prodrug 25 and RAL in the biological matrix. Two mobile phases were used: mobile phase A (0.025% NH4OH and 2 mM NH4OAc in 95:5 v/v water/MeCN) and mobile phase B (0.025% NH4OH and 2 mM NH4OAc in 5:95 v/v water/MeCN). A UPLC method was performed using an LC-MS/MS-BM Triple Quad 6500 plus system with an ACQUITY UPLC BEH C18 1.7 μm column (2.1 × 50 mm) at a flow rate of 0.65 mL/min. The assay time was 2.5 min, and the solvent B composition was as follows: 10–100% (0.2–1.4 min), 30% (1.41–1.7 min), 95% (2.0–2.4 min), and 10% (2.41–2.5 min). The retention times for the prodrug, RAL and the internal standards (tolbutamide and verapamil) were 0.76, 1.04, 0.66, and 0.97 min, respectively. Quantification was performed by monitoring the transition of m/z 835.3 [M+H]^+ to 457.2 for prodrug 25, representing the cyclisation of the linker with the amidic RAL such as in side-product 22; whereas for RAL, the transition m/z 445.2 [M+H]^+ to 361.2 was followed, representing the loss of the 2-methyl-1,3,4-oxadiazole moiety as the main fragmentation pathway. For the internal standards, the m/z transition from 455.2 [M+H]^+ to 164.9 was used for verapamil (corresponding to formation of the verapamil fragment [CH2CH2-(3,4-dimethoxy phenyl)]^+), and for tolbutamide, the transition of m/z of 271.1 [M+H]^+ to 155.1 was used, representing formation of the [CH3-Ph-SO2]^+ fragment. […] The method was linear over the measured standard concentrations for 25 and RAL. The mean plasma concentration was determined for 25 and RAL (as metabolite or control) at each sampling time point. Pharmacokinetic parameters were then calculated by non-compartmental analysis of plasma concentration/time profiles using the Phoenix WinNonlin 6.3 software. The computed parameters were as follows: peak plasma concentration (Cmax); the time over which the initial concentration is reduced to half (t½); area under the plasma concentration versus time curve from time zero to 96 h (AUC 0–96 h); and mean residence time from time zero to 96 h (MRT 0–96 h).
Since in vitro models are not fully predictive of in vivo pharmacokinetics, especially for prodrugs, assessment of these characteristics still relies on in vivo studies. Therefore, the pharmacokinetic profile of prodrug 25 was evaluated in mice. Compound 25 and the control (RAL) were dissolved in DMSO/Solutol HS15/water (10:10:80). For a single SC injection of 25 (30 mg/kg) in BALB/c mice (n = 3), the plasma concentrations of prodrug and released RAL were measured at the following time points: zero/pre-dose; then 0.25, 0.5, 1, 2, 3, 4, 5, 6, 24, 48, and 96 h. […]

[7] = 50% PBS, pH 7.4, 34 °C, 25 µM probe, 1 d
[8] = 50% PBS, pH 7.4, 34 °C, 25 µM probe

CNCCOC(=O)OCOc1c(-c2ccc(Oc3ccc(OC(F)(F)F)cc3)cc2F)c(C)nc2cc(OC)c(Cl)cc12 [Compound 1]
parent compound released within 1 h [1]: > 90%
aqueous solubility compared with the parent compound [2]: enhanced
oral bioavailability compared with the parent compound [3]: enhanced

C#CCCCNCCCCCOC(=O)OCOc1ccc2c(-c3ccc(C(=O)O)cc3C)c3ccc(=O)cc-3oc2c1.Cl [Compound 14, N-(5-(((((9-(4-Carboxy-2-methylphenyl)-3-oxo-3H-xanthen-6-yl)oxy)methoxy)carbonyl)oxy)pentyl)pent-4-yn-1-aminium chloride]
half-life ([4]; 50% PBS buffer): 40.6 h
CTG fluorophore released after 1 d [4, 7]: 36%
CTG fluorophore released after 2 d [4, 8]: 58%
CTG fluorophore released after 9 d ([4]; 50% PBS, pH 7.4, 34 °C, 25 µM probe, 9 d): 98%
CTG release after 1 d in 50% Tris buffer [5]: 89.2%

C#CCCCNCCCCCCOC(=O)OCOc1ccc2c(-c3ccc(C(=O)O)cc3C)c3ccc(=O)cc-3oc2c1.Cl [Compound 15, 6-(((((9-(4-Carboxy-2-methylphenyl)-3-oxo-3H-xanthen-6-yl)oxy)methoxy)carbonyl)oxy)-N-(pent-4-yn-1-yl)hexan-1-aminium chloride]
half-life [4]: 47.5 h
CTG fluorophore released after 1 d [4, 7]: 29%
CTG fluorophore released after 2 d [4, 8]: 50%
CTG fluorophore released after 10 d ([4]; 50% PBS, pH 7.4, 34 °C, 25 µM probe, 10 d): 98%
CTG release after 1 d in 50% Tris buffer [5]: 86.2%

Cc1cc(C(=O)O)ccc1-c1c2ccc(=O)cc-2oc2cc(OCOC(=O)OCCCCCNCCCc3cn(CCP(=O)(O)O)nn3)ccc12.Cl [Compound 20, 5-(((((9-(4-Carboxy-2-Methylphenyl)-3-Oxo-3H-Xanthen-6-yl)Oxy)Methoxy)Carbonyl)Oxy)-N-(3-(1-(2-Phosphonoethyl)-1H-1,2,3-triazol-4-yl)Propyl)Pentan-1-Aminium Chloride]
half-life [4]: 69.1 h
CTG fluorophore released after 1 d [4, 7]: 25%
CTG fluorophore released after 2 d [4, 8]: 41%
CTG fluorophore released after 13 d ([4]; 50% PBS, pH 7.4, 34 °C, 25 µM probe, 13 d): 98%
CTG release after 1 d in 50% Tris buffer [5]: 82.5%

Cc1cc(C(=O)OC(C)(C)C)ccc1-c1c2ccc(=O)cc-2oc2cc(OCOC(=O)OCCCCCCNCCCc3cn(CCP(=O)(O)O)nn3)ccc12.Cl [Compound 21, 6-(((((9-(4-(Tert-Butoxycarbonyl)-2-Methylphenyl)-3-Oxo-3H-Xanthen-6-yl)Oxy)Methoxy)Carbonyl)Oxy)-N-(3-(1-(2-Phosphonoethyl)-1H-1,2,3-Triazol-4-yl)Propyl)Hexan-1-Aminium Chloride]
half-life [4]: 75.6 h
time to maximal release of payload ([4]; 50% PBS, pH 7.4, 34 °C): 15 days
CTG fluorophore released after 1 d [4, 7]: 20%
CTG fluorophore released after 2 d [4, 8]: 33%
CTG fluorophore released after 15 d ([4]; 50% PBS, pH 7.4, 34 °C, 25 µM probe, 15 d): 98%
CTG release after 1 d in 50% Tris buffer [5]: 80.9%

Cc1nnc(C(=O)NC(C)(C)c2nc(C(=O)NCc3ccc(F)cc3)c(OCOC(=O)OCCCCCCNCCCc3cn(CCP(=O)(O)O)nn3)c(=O)n2C)o1 [Compound 25, 6-(((((4-((4-Fluorobenzyl)Carbamoyl)-1-Methyl-2-(2-(5-Methyl-1,3,4-Oxadiazole-2-Carboxa-Mido)Propan-2-Yl)-6-Oxo-1,6-Dihydropyrimidin-5yl)Oxy)Methoxy)Carbonyl)Oxy)-N-(3-(1-(2-Phosphonoethyl)-1H-1,2,3-Triazol-4-Yl)Propyl)Hexan-1-Aminium Chloride]
half-life ([4]; 50% PBS buffer): 463 h
release kinetics (order) ([4]; 50% PBS, pH 7.4): first-order kinetics
time to maximal release of payload ([4]; 50% PBS, pH 7.4, 34 °C): 45 days
RAL released after 1 d ([4]; 50% PBS, pH 7.4, 34 °C, 100 µM prodrug, 1 d): 8.4%
RAL released after 10 d ([4]; 50% PBS, pH 7.4, 34 °C, 100 µM prodrug, 10 d): 31.5%
RAL released after 45 d (plateau) ([4]; 50% PBS, pH 7.4, 34 °C, 100 µM prodrug, 45 d): 82% and 82.1%
degree of side-product (27) formation ([4]; 50% PBS, pH 7.4, 34 °C, hydrolysis of RAL oxadiazole, accounts for unreleased RAL): 15.2%
Cmax [6]: 4550 ng/mL
Tmax [6]: 0.25 h
AUC(0-t) ([6]; read-out: AUC 0–96 h): 3270 ng·h/mL
half-life ([6]; read-out: t½ (converted)): 0.85 h
